According to patent publication US20040116506A1, “Use of levetiracetam for treating or preventing acute headaches” (priority 2002, published 2004):

Experiments:
[1] = tested on: recurrent migraine headaches; assay: Oral levetiracetam as a prophylactic agent, small-scale open-label trial; format: in vivo; conditions: chronic daily oral treatment, 250 to 750 mg tablets; substantial fraction of patients
Description: A limited number of patients who were being treated by the Applicant for recurrent migraine headaches were placed on a regimen of daily oral levetiracetam, in a small-scale open-label trial. […] In general, the recurrent migraine patients who were chosen for this type of experimental trial were those who had not responded adequately to various other known candidate treatments. Patients kept daily records of the frequency of their migraine headaches, and also kept logs that recorded the severity of each headache, on a subjective scale of 1 to 10, with 1 being mild, and 10 being extremely intense pain.

[2] = over a wide dose range; cited from earlier work
[3] = tested on: intractable migraine headache; assay: Injectable (intravenous) levetiracetam for acute migraines, open-label study; format: in vivo, patients
Description: Sterile, preservative-free liquid preparations of levetiracetam, at concentrations of 200 mg/ml or 400 mg/ml, was prepared in a laminar flow hood by a compounding pharmacist. Particulate matter was filtered out through a series of filtrations and the solution was stabilized at a pH of 6.0. The resulting solution was clear. 29 patients were treated (19 female and 10 male), and a total of 42 intractable migraines were treated in this study. Their age range was 26 to 59 (mean age, 44 years). All patients had failed treatment with their usual migraine-specific or abortive therapies. Most patients (n=24) were in the second or third day of intractable migraine headache. 5 patients were treated on more than one occasion (1 patient was treated 6 separate times; 1 patient, 5 times, 1 patient, 3 times; and 2 patients, twice each). 6 patients (21%) were already on levetiracetam orally at the time of intravenous treatment. 23 were naive to levetiracetam at the time of treatment. Patients were treated in the setting of a headache clinic. An antecubital line was started and pulse oximetry monitoring was employed throughout treatment. No other medications were given orally or intravenously to treat the migraine. In a typical treatment for a first-time patient, a test dose of 400 mg levetiracetam was given, and then 400-600 mg was given every 5 minutes, until maximum effect was reported by the patient. The average dosage given intravenously was 5940 mg (range 400 to 16,000 mg). The average time to best response after treatment was 66 min (range=20-120 min). Prior to treatment, migraine severity (reported by each patient on a 0 to 10 numeric rating scale (NRS), with 10 representing the absolute worst possible pain) was 8.4. After treatment, it was 1.6, which represents a mean reduction of 81% in migraine severity. 16 patients (55%), representing 21 of 42 episodes, had complete resolution of their ongoing migraine, to a reported severity of zero. Only one patient had no reported response to the treatment.

epileptic seizures = conditions: taken chronically; patients who suffer from frequent seizures; cited from earlier work

patients reporting drowsiness ([3]; intravenous, of 29 patients): 2 patients
patients reporting transient nausea ([3]; intravenous, of 29 patients): 3 patients
Compound: CC[C@@H](C(N)=O)N1CCCC1=O [levetiracetam]
reduced frequency and/or reduced severity of migraine headaches [1]: substantial benefits
tolerability / toxicity [2]: well tolerated over a wide dose range with no apparent toxicity
episodes with complete resolution of ongoing migraine ([3]; intravenous): 21 of 42 episodes
side effects ([3]; intravenous): minimal
time to best response after treatment, range ([3]; intravenous, 29 patients, 42 migraines): 20 to 120 min
mean reduction in migraine severity ([3]; intravenous, NRS 8.4 prior to treatment vs 1.6 after): 81%
average time to best response after treatment ([3]; intravenous, average dosage 5940 mg, 29 patients, 42 migraines): 66 min
time until side effects dissipated spontaneously ([3]; intravenous, nausea and drowsiness): 30 to 90 min
patients with complete resolution of ongoing migraine, to a reported severity of zero ([3]; intravenous, of 29 patients): 16 patients
patients with no reported response to the treatment ([3]; intravenous, of 29 patients): one
share of patients with complete resolution of ongoing migraine ([3]; intravenous, of 29 patients): 55%
migraine severity after treatment (0 to 10 numeric rating scale, NRS) ([3]; intravenous, severity prior to treatment was 8.4): 1.6
outcome in patient treated for a combination of cluster headaches and migraines ([3]; one patient): resolution of both
reduction of the frequency of epileptic seizures (epileptic seizures): 15 to 30%
